The results in this text go back to paper PMC6001834 (Drug Design, Development and Therapy, 2018).

SMILES strings stand for the structures.

The subject of this test is AMI rats. As to the kind of experiment: In vivo effects of LNCs on infarct size. Set-up: species or system Sprague-Dawley rats. The conditions noted are these: intravenous injection, n=8, AMI group 58%.

Turning to `Nc1ncnc2c1ncn2[C@@H]1O[C@H](CO)[C@@H](O)[C@H]1O` [free Ade, Adenosine], the “infarct size (percentage of whole size of the left ventricle)” value stood at 47%.
